Measured values published in patent publication US20090286738A1, “Gene Regulation” (ST. GEORGE'S ENTERPRISES LIMITED, priority 2005, published 2009).

Key:
[1] = test system: A549 tumours; assay: Treatment of A549 tumours in vivo; set-up: species or system mice; settings: twice weekly, 100 mg/kg followed by 10 mg/kg
Procedure: FIG. 13. Treatment of A549 tumours in vivo. Nude mice were injected with one million A549 cells subcutaneously and treatment was started when tumours reached an average volume of 100 mm^3. […] (a) intralesional (IT) administration, (b) intraperitoneal (IP) administration.
(§1) Control groups received control peptide and PBS accordingly. For the A549 tumour model, […] were used to establish flank models. This study was conducted by Perry Scientific Inc., USA.
We also examined whether HXArg9 could block the growth of a non-melanoma tumour in vivo. In order to do this, we established flank tumours using the non-small cell lung cancer derived cell line A549 (Lieber, M., et al. Int. J. Cancer 17, 62-70 (1976)) in nude mice.

[2] = test system: B16 tumours; assay: QPCR of RNA extracted from treated B16 tumours; format: in vivo, mice; settings: IP 15 mg/Kg, two hours after treatment
Procedure: FIG. 10. […] RNA extracted from (a) B16 cells cultured in vitro and treated with 60 μM peptide for two hours, and (b) B16 tumours treated with peptide injected IP at 15 mg/Kg body weight; tumours were excised and RNA was extracted two hours after treatment. Results are expressed as a proportion of the level of β-actin transcripts. For (a), the results are an average of 2 separate experiments, for (b), the results are an average for tumours taken from three individual mice. U, untreated; C, CX2Arg9(2D) treated; H, HXArg9(2D) treated. Error bars represent the standard error of the mean.
(§2) In order to assess whether the hexapeptide could block HOX/PBX binding in vivo, tumours were treated with HXArg9 for two hours and then used to produce nuclear lysates.

[3] = test system: HOX/PBX/DNA complexes; assay: Band shift assay, protein extracted from treated B16 tumours; format: in vivo, mice; settings: tumours treated for two hours
Procedure: Double stranded oligodexoynucleotide probes were incubated in protein extracted from B16 tumours. One of these probes (HP) contained a HOX/PBX consensus binding region (bold)—5′ CTGTTTGATT TATTTGTTTA 3′. A second, control probe (CP) contained an altered HOX/PBX binding site that is not predicted to bind HOX and PBX proteins—5′ CTGTTACTGA CGATTGTTTA 3′. […] The mobility of CP was unchanged by incubating with the protein extract (lane 11). […] U, untreated; C, CX2Arg9(2D) treated; H, HXArg9(2D) treated; +HP, the HP probe was added to the lysates with an excess of unlabelled probe as shown (0, 5 fold, or 25 fold); +CP, control probe added to lysates; ‘+anti PBX’, anti-PBX antibody added to lysate; ‘+block pep’, a blocking peptide was added to the lysate that blocks anti-PBX antibody from binding to PBX.
as §2

[4] = test system: malignant cell lines (B16 mouse melanoma, LNCAP human prostate cancer, K562); assay: Activity of peptides on different malignant cell lines, living and dead cells after 3 hours (FIGS. 6 to 8); format: cell-based; settings: further experiments
Procedure: (§3) The peptides as indicated were applied to the cells at a concentration of 60 μM (FIG. 6A) or 6 μM (FIG. 6B). In both experiments the HXArg9, CX1Arg9 and CX2Arg9 peptides used were the (2D) variant peptides in which the N- and C-terminal amino acids are in the D conformation and all remaining amino acids are in the L conformation. The number of living and dead cells were assessed after 3 hours. Black bars=% or number of cells dead. White bars=% or number of cells alive.
as §3, with “7A)” for “6A)”, “7B).” for “6B).”
as §3, with “μM. HXArg9(2D) is” for “μM (FIG. 6A) or 6 μM (FIG. 6B). In both experiments”, “variant form of HXArg9 in which the N-terminal and C-terminal amino acids are in the D conformation and the remaining amino acids are in the L conformation. HXArg9 consists of only L-conformation amino acids. The” for “HXArg9,”, “bars=%” for “bars=% or number of”
(§4) Cell lines were seeded at 4×10^4 cells/ml in liquid culture system made of RPMI-1640 medium (Life Technologies, UK) supplemented with Foetal Calf Serum (10% Sigma Aldrich) and penicillin/streptomycin (1%, Sigma) and at least in duplicate. When required the test peptide was added to the medium. Cell lines were cultured for up to 7 days at 37° C., 5% CO2 in humidified atmosphere. Cultured cells were then assessed for cell viability/enumeration using trypan blue exclusion (Sigma Aldrich).
The activity of the peptides described above was tested on a number of different malignant cell lines using a similar assay to that described previously.

[5] = test system: B16 murine melanoma cells; assay: Living and dead B16 cells after 3 hours (FIGS. 2A, 9); format: cell-based; settings: 3 hours
Procedure: In FIG. 2A the peptides as indicated were applied to the cells at a concentration of 60 μM. The number of living and dead cells were assessed after 3 hours. Black bars=number of cells dead. White bars=number of cells alive.
as §3
The HXArg9 peptide used was the (2D) variant peptide in which the N- and C-terminal amino acids are in the D conformation and all remaining amino acids are in the L conformation. HXArg9 was applied to the cells at a variety of concentrations (μM), and the number of dead and living cells was assessed after 3 hours. Black bars=% cells dead. White bars=% cells alive.
as §4

[6] = Stability of peptides in human plasma at 37° C., SDS-PAGE; format: in vitro ADME
Procedure: Peptides were incubated in human serum for the times shown and then visualised on a Coomassie brilliant blue stained gel. The arrow heads indicate the position of intact peptide. Standard=peptide only in this lane as a marker.
The stability of HXArg9(2D) and CX2Arg9(2D) was assessed by incubation each with human plasma at 37° C. and the amount of peptide remaining after different amounts of time was assessed by SDS-PAGE. Each peptide was added to freshly prepared human plasma to a final concentration of 1 mM in a total volume of 40 μl. Samples were incubated at 37° C. and reactions were stopped by adding 60 μl of water and 0.9 ml of protein gel loading buffer (BioRad, USA) containing 1% 2-mercaptoethanol, and heating to 95° C. for four minutes. 2 μl of each sample was run on a 22% acrylamide gel. […] This compared with a half life of approximately 40 minutes for the L isomer form HXArg9.

[7] = test system: B16 tumours; assay: Treatment of murine B16 tumours in vivo; set-up: species or system mice; settings: 15 mg/kg intraperitoneal
Procedure: FIG. 12. Treatment of murine B16 tumours in vivo. Mice were injected with one million B16 cells subcutaneously and treatment was started when tumours first became palpatable (day 1=first day after treatment). Mice were injected once daily for four days with an intraperitoneal dose of 15 mg/kg. (a) Changes in tumour size over treatment period (n=4). (b) Histological sections of tumours from HXArg9(2D) (HXR9) and CX2Arg9(2D) (CXR9) treated mice at the end of treatment.
Mice were maintained at the Biological Resource Facility at St. George's. Their care was in accordance to Home Office regulations. B16 cells in exponential growth phase were injected subcutaneously at a dose of 1×10^6 cells into C57black/6 mice. Tumour growth was monitored daily. Once tumours were established, mice received 15 mg/kg HXArg9(2D) intraperitoneal. Mice were euthanised and tumours excised and fixed for histopathological analysis.
as §1
The B16 F10 murine tumour is a well established in vivo model of melanoma, and is also one of the most aggressive murine tumours (Fidler, I. J. & Nicolson, G. L. Isr. J. Med. Sci. 14, 38-50 (1978), Shrayer, D. et al. Cancer Immunol Immunother. 40, 277-282 (1995)). […]

CSCC[C@H](NC(=O)[C@H](Cc1c[nH]c2ccccc12)NC(=O)[C@@H]1CCCN1C(=O)[C@H](Cc1ccc(O)cc1)NC(=O)[C@@H](N)Cc1c[nH]c2ccccc12)C(=O)N[C@@H](CCCCN)C(=O)N[C@@H](CCCCN)C(=O)N[C@@H](Cc1c[nH]cn1)C(=O)N[C@@H](Cc1c[nH]cn1)C(=O)N[C@@H](CCCNC(=N)N)C(=O)N[C@@H](CCCNC(=N)N)C(=O)N[C@@H](CCCNC(=N)N)C(=O)N[C@@H](CCCNC(=N)N)C(=O)N[C@@H](CCCNC(=N)N)C(=O)N[C@@H](CCCNC(=N)N)C(=O)N[C@@H](CCCNC(=N)N)C(=O)N[C@@H](CCCNC(=N)N)C(=O)N[C@@H](CCCNC(=N)N)C(=O)O [HXArg9, WYPWMKKHHRRRRRRRRR]
tumour growth [1]: significant reduction in tumour growth | transcripts of Fos, Jun, Dusp1 and Atf3 (QPCR) [2]: upregulated | binding of tumour protein extract to HOX/PBX consensus probe [3]: could not bind a DNA probe containing a HOX/PBX consensus binding site | effectiveness in preventing cellular proliferation compared with HXP4 [4]: as effective as HXP4 | ablation of cells ([5]; 4.625 μM): significant ablation | ablation of cells ([5]; 37 μM): ablation of substantially all | ablation of cells ([5]; 74 μM): ablation of substantially all | half-life [6]: ~40 min | histological analysis of excised tumours [7]: inner cell death | tumour size at end point ([7]; once daily for four days): significant degree of shrinkage
